Laboratory results taken from PMC12040169 (PLOS Biology, 2025).

Assay: in vitro
Details: human, hela cells, % viability

Row | SMILES | viability at 28.5 h, 10 µM [%] | viability at 28.5 h, 10 µM (bulk resorufin, single well) [%]
1 | O=C(NC1CC1)c1ccsc1NC(=O)C1C2C=CC(C2)C1C(=O)O (stereo not drawn) [CBK270322] | 98.7 | 
2 | Cc1cccc(N2CCN(CC(=O)Nc3ccc(S(N)(=O)=O)cc3)CC2)c1C [CBK269369] | 96.8 | 
3 | O=C(O)CCc1nn2c3ccccc3n(CC(=O)c3cccs3)c2nc1=O [CBK267518] | 99.8 | 
4 | CN(C)c1cccc(-c2cnc3[nH]c(=O)n(CCCO)c3n2)c1 [CBK065052] | 102 | 
5 | COc1cc(S(=O)(=O)NC2CC(C)(C)NC(C)(C)C2)ccc1Br [CBK267908] | 87.4 | 
6 | COc1ccc(Cl)cc1NC(=O)Nc1ccc(C(=O)N2CCOCC2)cc1 [CBK266958] | 87.1 | 
7 | Clc1ccc(SCCCNCCN2CCOCC2)cc1 [CBK268603C] | 90.3 | 
8 | Cn1nc2c(cc1=O)CN(C(=O)c1cnc(C(C)(C)C)nc1)CC2 [CBK304293] | 96.5 | 
9 | Cn1c(N2CCC(C(=O)NC3CC3)CC2)nc2ccccc21 [CBK283940] | 97.9 | 
10 | COCCNC(=O)N1CCN(CCc2ccccc2)CC1 [CBK158909] | 97.3 | 
11 | O=C(CSc1ncc(C(=O)O)n1-c1ccc(F)cc1)NCCc1ccc(F)cc1 [CBK297513] | 93.3 | 
12 | CC(C)[C@H](CO)Nc1nc(-c2cccc(OC(F)(F)F)c2)cnc1N [CBK063957] | 85.7 | 
13 | CCCc1cc(C(=O)N2CCc3sccc3C2C)[nH]n1 (stereo not drawn) [CBK283072] | 101 | 
14 | O=C(c1cnc2cc(C(F)(F)F)ccc2c1O)N1CCN(c2ccccn2)CC1 [CBK107431] | 94.8 | 
15 | O=C(NC(c1ccccc1)c1ccco1)C1CCN(Cc2cccc(Cl)c2)CC1 (stereo not drawn) [CBK148295] | 103 | 
16 | CS(=O)(=O)NC1CCN(C2CCc3c(Cl)cccc32)CC1 (stereo not drawn) [CBK305252] | 93.7 | 
17 | CC(Cc1cccs1)C(=O)N1CCn2cnnc2C1 (stereo not drawn) [CBK282109] | 96 | 
18 | CC(C)SCC(=O)Nc1ccc(Br)cc1 [CBK057618] | 102 | 
19 | Cn1c(C(=O)NCCc2cnccn2)cc2cc(Cl)ccc21 [CBK281575] | 90.9 | 
20 | CC(=O)NCCNC(=O)c1ccc(-c2cnc(OCC3CCN(C(=O)OC(C)(C)C)CC3)nc2)cn1 [CBK170023] | 104 | 
21 | COCCNc1nc(-c2ccccc2)ccc1C(=O)Nc1cccc(OC)c1 [CBK105886] | 98.1 | 
22 | O=C(CSc1nnc(C2CC2)[nH]1)Nc1ccc(SC(F)F)cc1 [CBK295302] | 101 | 
23 | Fc1cccc(F)c1-c1cc(Nc2ccc(N3CCOCC3)cc2)ncn1 [CBK037673] | 99.5 | 

Row | SMILES | viability at 28.5 h, 10 µM [%] | viability at 28.5 h, 10 µM (bulk resorufin, single well) [%]
24 | COc1ccccc1CNCC1CCN(C(=O)OC(C)(C)C)CC1 [CBK056710] | 96.4 | 
25 | O=C(CCCc1ccccn1)N(Cc1ccccn1)C1CCCC1 [CBK282033] | 99.9 | 
26 | CCOc1ccccc1NC(=O)Nc1cccc(S(N)(=O)=O)c1 [CBK057282] | 91.3 | 
27 | O=C(CSCc1ccc(Cl)cc1Cl)Nc1nccs1 [CBK131921] | 103 | 
28 | CC(C)C(=O)N[C@H]1C[C@@H](Cc2cc(CN3CCOCC3)on2)C1(C)C [CBK289248] | 99.8 | 
29 | OCCNc1nc(-c2cccnc2)nc2ccccc12 [CBK262314] | 105 | 
30 | CC(C)(O)c1cc(CC2(NCc3ccco3)COC2)no1 [CBK289255] | 92.6 | 
31 | C=CCNC(=O)N1CC[C@H]2CC(=O)N(Cc3ccc(OC)cc3)CC[C@H]2C1 [CBK288790] | 86.9 | 
32 | COc1ccc(C(=O)N2CCC3(CCCN(C(=O)CCSC)C3)C2)cc1OC (stereo not drawn) [CBK131661] | 111 | 
33 | COc1ccc2cc(/C=C(\C#N)c3nc(-c4cc5ccccc5oc4=O)cs3)c(Cl)nc2c1 [CBK261623] | 93.9 | 
34 | c1cncc(-c2nccnc2NCC2CC2)c1 [CBK037310] | 80.9 | 
35 | O=C(CSc1nnc(-c2ccco2)n1Cc1ccco1)c1ccc(-c2ccccc2)cc1 [CBK267555] | 91.1 | 
36 | CCc1c(C)nn(-c2ccccc2Br)c1-c1ccccc1 [CBK016757] | 87.9 | 
37 | CCCN1CC(NC(=O)c2cc(COc3cccc(F)c3)[nH]n2)CC1=O (stereo not drawn) [CBK306912] | 82.2 | 
38 | c1c2c(cc3sc(N4CCCC4)nc13)OCCO2 [CBK287496] | 69.6 | 
39 | COc1cccc(OC)c1-c1cn2ccnc2c(N(C)CCN(C)C)n1 [CBK066398] | 97.3 | 
40 | CC(=O)Nc1ccc(/C=N/NC(=O)c2nnn(-c3nonc3N)c2-c2ccccc2)cc1 [CBK262790] | 94.9 | 
41 | COc1ccc(C(NC(=O)NNC(=O)CCC(=O)c2ccc(F)cc2)c2ccccc2C)cn1 (stereo not drawn) [CBK083659] | 99 | 
42 | Cc1ccc(NC(=O)c2cnc3scc(C)n3c2=O)cc1 [CBK287454] | 107 | 
43 | Cc1cc(NC(=O)CSc2nc3c(c(C(F)(F)F)n2)CCc2ccccc2-3)n(-c2ccccc2)n1 [CBK266086] | 106 | 
44 | CC[C@@H](Cn1ncc2ccccc2c1=O)NC(=O)CC1c2ccccc2Oc2ccccc21 [CBK286174] | 89.5 | 
45 | O=C(O)Cn1c2ccccc2c2nc3ccccc3nc21 [CBK263649] | 81.1 | 
46 | Cc1[nH]c2c(C)cccc2c1CC(=O)NC1CCCN(C)C1 (stereo not drawn) [CBK282485] | 74.1 | 

Row | SMILES | viability at 28.5 h, 10 µM [%] | viability at 28.5 h, 10 µM (bulk resorufin, single well) [%]
47 | O=C1CC2(CCN(C(=O)c3ccncc3)CC2)Oc2c(Br)cc(Br)cc21 [CBK156437] | 95.7 | 
48 | CCOc1ccc(CC(=O)NN2CCOCC2)cc1OCC [CBK268150] | 102 | 
49 | O=C(O)C(=C/C=C/Br)C(=O)O [CBK260906] | 92.6 | 
50 | CCc1nccn1CC(=O)N(C)C1CCCN(Cc2ccccc2F)C1 (stereo not drawn) [CBK306928] | 102 | 
51 | CNCc1ccccc1Sc1cccc(OC)c1 [CBK026207C] | 103 | 
52 | COc1ccc2[nH]cc(CC(=O)NCc3ccc(-c4csnn4)cc3)c2c1 [CBK149313] | 82.7 | 
53 | CC(=O)Nc1ccc(C(=O)Nc2ccc(S(=O)(=O)N3CCOCC3)cc2)cc1 [CBK264763] | 95.1 | 
54 | c1ccc(CC2CCN(CCc3c[nH]c4ccccc34)CC2)cc1 [CBK126385] | 94.9 | 
55 | Cc1c(C(=O)N2CCC(C(=O)c3cccnc3)CC2)oc2ccccc12 [CBK283954] | 88.9 | 
56 | Nc1nc2cccnc2cc1-c1ccc2c(c1)OCCCO2 [CBK081201] | 97.7 | 
57 | Cc1nc2ccccc2c(=O)n1Cc1cccnc1 [CBK288092] | 94.3 | 
58 | O=C(Nc1nc(-c2cc3ccccc3o2)cs1)c1ccc(F)cc1 [CBK287756] | 114 | 
59 | Cc1ccc(OC(C)C(=O)Nc2ccccc2C(=O)N2CCN(C)CC2)cc1 (stereo not drawn) [CBK269802] | 88.6 | 
60 | CCn1cc(CN2CCOC(c3cccc(-c4ccc(OC)cc4)n3)C2)c(C)n1 (stereo not drawn) [CBK286250] | 84.4 | 
61 | Cc1ccccc1N1C(=O)/C(=N\Nc2ccc(S(=O)(=O)O)cc2)C(=O)NC1=S [CBK018165] |  | 97.7
62 | O=C1NC2CS(=O)(=O)CC2N1Cc1ccccc1 (stereo not drawn) [CBK009306] | 85.7 | 
63 | NC(=O)c1ccc(NC(=O)N2CCc3ccccc3C2)cc1 [CBK155299] | 80.9 | 
64 | CN(C)c1ccc(C(=O)N2CC[C@@H](CC(=O)O)[C@@H](CC3=NCCc4ccccc43)C2)cc1 [CBK289159] | 94.8 | 
65 | O=C(COc1ccc([N+](=O)[O-])cc1)Nc1ccc2oc(-c3ccc(Br)cc3)nc2c1 [CBK263444] | 106 | 
66 | Cc1cc(C)n(CCCNC(=O)c2ncoc2-c2ccc(F)cc2)n1 [CBK282357] | 91.3 | 
67 | CN(C)CC(C)(C)CN1C2CCC1CC(O)(c1ccccc1F)C2 (stereo not drawn) [CBK282648] | 94.4 | 
68 | CC(=O)c1ccc(-c2cnc3[nH]c(=O)n(C4CCCCC4)c3n2)s1 [CBK064382] | 103 | 
69 | Nc1ncc(Br)nc1N1CCC[C@@H]1CO [CBK085450] | 105 | 

Row | SMILES | viability at 28.5 h, 10 µM [%] | viability at 28.5 h, 10 µM (bulk resorufin, single well) [%]
70 | COc1ccc(-c2cc(=O)[nH]c(N3CCN(C)CC3)n2)cc1 [CBK003849] | 90.4 | 
71 | O=C1N[C@@H](Cc2ccc(F)cc2)C(=O)N2CCN(C(=O)N3CCOCC3)C[C@H]12 [CBK289603] | 109 | 
72 | CCCCCn1c(O)nnc1SCc1csc(CS(=O)(=O)c2ccc(Cl)cc2)n1 [CBK007176] | 80.7 | 
73 | c1ccc2c(c1)CCN(c1nc3cc4c(cc3s1)OCCO4)C2 [CBK287498] | 82.8 | 
74 | Cc1ccc(S(=O)(=O)N(CC(=O)Nc2ccccc2C(=O)O)c2ccccc2)cc1 [CBK264034] | 94.6 | 
75 | Cc1ccc(Cl)cc1Nc1nc2nc(C)c(NCC3CC3)cn2n1 [CBK008522] | 105 | 
76 | Cc1ccnc2nc(C(=O)OC(C)C(=O)N3CCCC3)nn12 (stereo not drawn) [CBK306089] | 88.9 | 
77 | Cc1ccccc1OCCCn1cncc1-c1cnn(C)c1 [CBK281762] | 91.1 | 
78 | N=c1n(CCN2CCCCC2)c2ccccc2n1CC(O)c1cccs1 (stereo not drawn) [CBK262908C] | 94.9 | 
79 | COc1cncc(-c2cc(NC3CCCCC3)ncn2)c1 [CBK090903] | 96.5 | 
80 | CCCN(CCCc1ccccc1)C1Cc2cc(OC)c(OC)cc2C1 [CBK017596C] |  | 96.6
81 | NS(=O)(=O)c1ccc(NC(=S)NC(=O)/C=C/c2ccc([N+](=O)[O-])cc2)cc1 [CBK262176] | 99.2 | 
82 | CC(C)(C)C(=O)N1CC(n2nc(-c3ccccc3)ccc2=O)C1 [CBK284623] | 92.1 | 
83 | CCC(=O)Nc1nc(-c2ccc(OC)cc2)cs1 [CBK070494] | 85.7 | 
84 | CCCN1C[C@H](NC(=O)CC)[C@@H](c2ccc(OC)cc2)C1 [CBK282134] | 82.3 | 
85 | CC(=O)N1CCC(c2nc(C3CCCC3)no2)C1 (stereo not drawn) [CBK285452] | 104 | 
86 | COc1cc(C2C3=C(CC(C)(C)CC3=O)OC3=C2C(=O)CC(C)(C)C3)ccc1OCC(=O)O [CBK262379] | 94.8 | 
87 | O=C(Cc1cccc2ccccc12)NC(NC(=S)Nc1ccccc1Br)C(Cl)(Cl)Cl (stereo not drawn) [CBK261094] | 106 | 
88 | COc1ccccc1C1(NC(=O)Cn2nc(C)cc2C)CCCC1 [CBK283573] | 101 | 
89 | CC(C)(C)NCC(O)COc1ccc(Cl)cc1Cl (stereo not drawn) [CBK025597C] | 101 | 
90 | Cc1cc(C)cc(CC(C)Cc2nc3ccccc3[nH]2)c1 (stereo not drawn) [CBK262432] | 92.3 | 
